≈ marks a conversion by molar mass, not a printed value. Numbered stars: 1 amine (or outer) side, 2 acyl side, 3 side chain; on linkers, the order of the positions; unused ones are H or OH. Bridge positions count the residues as written; N and C are the ends. Square brackets hold non-standard residues; d marks the D form. Peptide text beside a SMILES is read from it. X1 = CC[C@H](C)[C@@H](N[*:1])[C@@H](O)CC(=O)O[C@H](C(=O)[C@H](C)C(=O)[*:2])C(C)C; NMeY = CN[C@@H](Cc1ccc(O)cc1)C(=O)O; dNMeL = CN[C@H](CC(C)C)C(=O)O
System: L1210 mouse leukemia cells
Assay: Three-day L1210 cell growth inhibition assay (at 37° C.)
Type: cell-based
Conditions: for growth of L1210 mouse leukemia cells in vitro: statement in words
Protocol: Three-day L1210 cell growth inhibition assay (at 37° C.)

[1] = three-day L1210 cell growth inhibition, 37° C., first ID50/ID90 column pair of Table 1
[2] = three-day L1210 cell growth inhibition, 37° C., second ID50/ID90 column pair of Table 1
[3] = three-day L1210 cell growth inhibition assay

Question: didemnin E was tested. Which ID50 [1] did it give?
Answer: 1.1 ng/mL

Question: And the ID90 [1]?
Answer: 7.6 ng/mL

Question: And the ID50 [2]?
Answer: 0.8 ng/mL

Question: And the ID90 [2]?
Answer: 5.6 ng/mL

Question: Which results are given for didemnin D?
Answer: ID50 [1]: 3.4 ng/mL; ID90 [1]: 15 ng/mL; ID50 [2]: 4.2 ng/mL; ID90 [2]: 16 ng/mL

Question: What does the source list for “3-hydroxydecanoyl-L-Gln-L-Gln-L-Gln-L-Gln-didemnin B [Didemnin Y]”?
Answer: growth of L1210 mouse leukemia cells in vitro: inhibit the growth; ID50 [3]: 6.4 ng/mL; ID50 [1]: 6.4 ng/mL; ID90 [1]: 21 ng/mL; ID50 [2]: 4.8 ng/mL; ID90 [2]: 20 ng/mL

Question: “(R)-3-hydroxydecanoyl-L-Gln-L-Gln-L-Gln-didemnin B [Didemnin X]” was tested. Which “growth of L1210 mouse leukemia cells in vitro” value did it give?
Answer: inhibit the growth

Question: And the ID50 [3]?
Answer: 4 ng/mL

Question: What about the ID50 [1] of the same compound?
Answer: 4 ng/mL

Question: And the ID90 [1]?
Answer: 17 ng/mL

Question: And the ID50 [2]?
Answer: 4.8 ng/mL

Question: And the ID90 [2]?
Answer: 17 ng/mL

Question: `CC[C@H](C)[C@H]1NC(=O)[C@@H](NC(=O)[C@@H](CC(C)C)N(C)C(=O)[C@@H]2CCCN2C(=O)C(C)O)[C@@H](C)OC(=O)[C@H](Cc2ccc(OC)cc2)N(C)C(=O)[C@@H]2CCCN2C(=O)[C@H](CC(C)C)NC(=O)[C@@H](C)C(=O)[C@H](C(C)C)OC(=O)C[C@@H]1O` (stereo partly drawn) [Didemnin B, didemnin B] was tested. Which ID50 [2] did it give?
Answer: 3.8 ng/mL (≈ 0.00342 µM)

Question: What about the ID90 [2] of the same compound?
Answer: 15 ng/mL (≈ 0.0135 µM)

Question: What does the source list for `CC[C@H](C)[C@H]1NC(=O)[C@@H](NC(=O)[C@@H](CC(C)C)NC)[C@@H](C)OC(=O)[C@H](Cc2ccc(OC)cc2)N(C)C(=O)[C@@H]2CCCN2C(=O)[C@H](CC(C)C)NC(=O)[C@@H](C)C(=O)[C@H](C(C)C)OC(=O)C[C@@H]1O` [Didemnin A, didemnin A] (H-[dNMeL]T[X1]LP[NMeY](Me); ester 2-C)?
Answer: ID50 [1]: 7.8 ng/mL (≈ 0.00827 µM); ID90 [1]: 58 ng/mL (≈ 0.0615 µM)
